According to BindingDB's records for patent US11130769 (Prelude Therapeutics, 2021):

These compounds were tested against Induced myeloid leukemia cell differentiation protein Mcl-1 (Homo sapiens, UniProt Q07820) (assay: Fluorescence Polarization Competition Assay).
Chain of Induced myeloid leukemia cell differentiation protein Mcl-1 (Q07820 whole entry): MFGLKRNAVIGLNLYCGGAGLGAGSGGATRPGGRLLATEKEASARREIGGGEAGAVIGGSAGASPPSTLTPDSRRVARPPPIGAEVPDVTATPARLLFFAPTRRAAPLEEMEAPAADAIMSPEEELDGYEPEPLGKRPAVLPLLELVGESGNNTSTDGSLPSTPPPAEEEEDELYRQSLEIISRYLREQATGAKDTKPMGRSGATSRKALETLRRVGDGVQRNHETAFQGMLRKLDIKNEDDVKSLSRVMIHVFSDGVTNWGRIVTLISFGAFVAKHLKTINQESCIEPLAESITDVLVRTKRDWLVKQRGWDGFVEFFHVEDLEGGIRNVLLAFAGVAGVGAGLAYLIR
Procedure: The assay was carried out in black half-area 96-well NBS plate (Corning), containing 15 nM of MCL-1 (BPS Bioscience), 5 nM of FITC-Bim and 3-fold serial diluted test compounds in a total volume of 50 μL of assay buffer (20 mM HEPES, 50 mM NaCl, 0.002% Tween 20, 1 mM TCEP, and 1% DMSO). The reaction plate was incubated for 1 hour at room temperature. The change of anisotropy is measured with an Envision multimode plate reader (PerkinElmer) at emission wavelength 535 nm. Fluorescence polarization was calculated in mP unit and the percentage inhibition was calculated by % inhibition=100×(mPDMSO−mP)/(mPDMSO−mPPC), in which mPDMSO is the DMSO control, and mPpc is the positive control. IC50 values were determined from a 10-point dose response curve by fitting the percent inhibition against compound concentration using the GraphPad Prism software
With CN1C/C=C/[C@H](OC(=O)NC2CC2)[C@@H]2CC[C@H]2CN2C[C@@]3(CCCc4cc(Cl)ccc43)COc3ccc(cc32)S(=O)(=O)NC(=O)C1(C)C the Ki was < 300 nM.
With CN(C)CCN(C)C(=O)O[C@H]1/C=C/COC(C)(C)C(=O)NS(=O)(=O)c2ccc3c(c2)N(C[C@@H]2CC[C@H]21)C[C@@]1(CCOc2cc(Cl)ccc21)CO3 the Ki was < 300 nM.
For CCO[C@@H]1CCN(C(=O)O[C@H]2/C=C/COC(C)(C)C(=O)NS(=O)(=O)c3ccc4c(c3)N(C[C@@H]3CC[C@H]32)C[C@@]2(CCOc3cc(Cl)ccc32)CO4)C1, the Ki was < 300 nM.
For COC1CN(C(=O)O[C@H]2/C=C/COC(C)(C)C(=O)NS(=O)(=O)c3ccc4c(c3)N(C[C@@H]3CC[C@H]32)C[C@@]2(CCOc3cc(Cl)ccc32)CO4)C1, the Ki was < 300 nM.
In the case of CN(C)[C@@H]1CCN(C(=O)O[C@H]2/C=C/COC(C)(C)C(=O)NS(=O)(=O)c3ccc4c(c3)N(C[C@@H]3CC[C@H]32)C[C@@]2(CCOc3cc(Cl)ccc32)CO4)C1, the Ki is reported as < 300 nM.
With CN(C)C1CN(C(=O)O[C@H]2/C=C/COC(C)(C)C(=O)NS(=O)(=O)c3ccc4c(c3)N(C[C@@H]3CC[C@H]32)C[C@@]2(CCOc3cc(Cl)ccc32)CO4)C1 the Ki was < 300 nM.
For CO[C@H]1/C=C/CN2CCC[C@H]2C(=O)NS(=O)(=O)c2ccc3c(c2)N(C[C@@H]2CC[C@H]21)C[C@@]1(CCCc2cc(Cl)ccc21)CO3 [US11130769, Ex. No. 100], the Ki was < 100 nM.
CO[C@@H]1/C=C/CN(C)C(=O)NS(=O)(=O)c2ccc3c(c2)N(C[C@@H]2CC[C@H]21)C[C@@]1(CCCc2cc(Cl)ccc21)CO3 [US11130769, Ex. No. 108] was tested, and the Ki was < 100 nM.
In the case of CN(C)C(=O)O[C@@H]1/C=C/CN(C)C2(CCC2)C(=O)NS(=O)(=O)c2ccc3c(c2)N(C[C@@H]2CC[C@H]21)C[C@@]1(CCCc2cc(Cl)ccc21)CO3 [US11130769, Ex. No. 139], the Ki is reported as < 100 nM.
In the case of CN(C)C[C@H]1CCCN1C(=O)O[C@H]1/C=C/COC(C)(C)C(=O)NS(=O)(=O)c2ccc3c(c2)N(C[C@@H]2CC[C@H]21)C[C@@]1(CCCc2cc(Cl)ccc21)CO3 [US11130769, Ex. No. 169], the Ki is reported as < 300 nM.
For CCOC(=O)N(C)[C@@H]1/C=C/COC(C)(C)C(=O)NS(=O)(=O)c2ccc3c(c2)N(C[C@@H]2CC[C@H]21)C[C@@]1(CCCc2cc(Cl)ccc21)CO3 [US11130769, Ex. No. 252], the Ki was < 100 nM.
